Like-named read-outs stand apart in the source and are kept apart here.
Columns and labels:
[1] = system: IL-10 production in peripheral blood mononuclear cells (PBMCs); test: Human IL-10 induction assay in PBMCs; assay type: cell-based; conditions: TPA/PHA stimulated human PBMCs, IL-10 in supernatant by immunoassay
Text: 7. The IL-10 induction assay is described in the “Assay” section of the Description, infra.
The evaluation of the novel compounds of the invention for psoriasis is done using the Keratinocyte Proliferation Assay in combination with other assays that measure inhibition of IL-2 production and stimulation of IL-10 production in peripheral blood mononuclear cells (PBMCs).
6. The IL-1 Induction Assay
This is an in vitro efficacy assay for psoriasis, abscess and adhesion. Psoriasis involves both keratinocytes and immune cells. IL-10 is a unique cytokine because it is anti-inflammatory and immunosuppressive. This assay tells us whether a VDRM is able to function as an agonist in PBMCs (primary blood mononuclear cells) or not. A lower EC50 value is desirable in this assay since a compound with a lower EC50 value will be a better agonist in PBMCs. An acceptable test result is an EC50 value of less than 200 nM.
(6) Materials and Method for Human IL-10 Induction Assay:
Isolation of peripheral blood mononuclear cells (PBMCs):
• A. Collect 50 ml of human blood and dilute with media, RPMI-1640. • B. Prepare sterile tubes with ficol. • C. Add diluted blood to tubes. • D. Centrifuge. • E. Discard the top layer and collect the cells from middle layer. • F. Divide all cells into four tubes and add media. • G. Centrifuge. • H. Aspirate off media and resuspend. • I. Collect all cells • J. Centrifuge. at 1200 rpm for 10 minutes. • K. Resuspend in RPMI-1640 with 2% FBS and count cells • Stimulation of PBMC: • L. Prepare TPA in DMSO. • M. Dissolve PHA in water. • N. Plate TPA/PHA treated PBMCs in well plates. • O. Incubate. • Treatment: • P. Prepare all compound dilutions in plain RPMI-1640 media. • Q. Add diluted compound. • R. Incubate. • Sample Collection and assay: • S. Remove all the cells by centrifugation and assay the supernatant for IL-10 by immunoassay. • 1) T. Perform IL-10 assay using anti-human IL-10 antibody coated beads, as described by the manufacturer (Linco Research Inc., St. Charles, Mo.).

KERtr cells = test: Keratinocyte proliferation assay (BrdU incorporation); assay type: cell-based; conditions: KERtr human skin keratinocytes, 72 hr treatment, read-out: Kera. Prolif. IC50
Protocol: 6. The keratinocyte proliferation assay is described in the “Assay” section of the Description, infra.
5. The Keratinocyte Proliferation Assay
This Assay is indicative for the treatment of psoriasis.
(5) The Keratinocyte Proliferation Assay:
KERtr cells (Human skin keratinocyte transformed with a retrovirus vector, obtained from ATCC) were plated in 96-well flat-bottomed plates (3000 cells/well) in 100 µl keratinocyte serum free medium supplemented with bovine pituitary extract in the absence of EGF (Life Technologies, Rockville, Md.) and incubated at 37° C. for two days. The cells were treated with various concentrations of VDR ligands (ten-fold serial dilution from 10,000 nM to 0.1 nM in triplicate), dissolved in 100 µl keratinocyte serum free medium supplemented with bovine pituitary extract in the absence of EGF and incubated at 37° C. for 72 hr. […] Potency values (IC50) values were determined as the concentration (nM) of compound that elicited a half-maximal response.

[2] = Mouse hypercalcemia assay (six day, serum ionized calcium); assay type: in vivo
Protocol: 5. The Mouse Hypercalcemia test is described in the “Assay” section of the Description, infra.
4. The Mouse Hypercalcemia Assay
The Mouse Hypercalcemia Assay is a six day hypercalcemia test for toxicity and selectivity. Acceptable test results are levels greater than 300 μg/kg/day. Preferred assay results are levels greater than 1000 μg/kg/day.
(4) Materials and Method for The Mouse Hypercalcemia Assay:
Weanling, virus-antibody-free, five to six weeks old female DBF mice (Harlan, Indianapolis, Ind.) are used for all the studies. Animals are allowed to acclimate to local vivarium conditions for 2 days. […] The animals then are divided into groups with 4-5 mice per group. Different doses of test compounds prepared in 10% Ethanol and 90% sesame oil are administered to mice orally via gavage for 6 days. 1α-25(OH)2D3 0.5 μg/kg/d was also given to one group of mice as the positive control. Serum ionized calcium is evaluated at 6 hours after the last dosing under isoflurane anesthesia by Ciba-Corning Ca++/PH Analyzer, (Model 634, Chiron Diagnostics Corp., East Walpole, Mass.). Raw data of group differences is assessed by analysis of variance (ANOVA) using Fisher's protected least significant difference (PLSD) where the significance level was P<0.05.

rat osteocalcin promoter = test: OCN (osteocalcin) promoter assay in RG-15 (ROS 17/2.8) cells; assay type: cell-based
Procedure, shortened: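 Rat osteoblast-like RG-15 (ROS 17/2.8) cells stably carry the rat osteocalcin promoter fused to luciferase. They were treated with compounds for 48 h in medium with 2% FBS and 0.01% DMSO. EC50 was derived from luciferase activity in cell lysates.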

RXR-VDR heterodimer = biological target: T1, RXR-VDR heterodimer (Homo sapiens, UniProt P11473); test: RXR-VDR heterodimerization assay (SaOS-2 cells); assay type: cell-based
T1 construct: Add the Gal-4-RXR-DEF and VP16-VDR-LBD; expressed in transfected cells; host or cells: SaOS-2 cells
T1 sequence (P11473 127-423 limits assumed): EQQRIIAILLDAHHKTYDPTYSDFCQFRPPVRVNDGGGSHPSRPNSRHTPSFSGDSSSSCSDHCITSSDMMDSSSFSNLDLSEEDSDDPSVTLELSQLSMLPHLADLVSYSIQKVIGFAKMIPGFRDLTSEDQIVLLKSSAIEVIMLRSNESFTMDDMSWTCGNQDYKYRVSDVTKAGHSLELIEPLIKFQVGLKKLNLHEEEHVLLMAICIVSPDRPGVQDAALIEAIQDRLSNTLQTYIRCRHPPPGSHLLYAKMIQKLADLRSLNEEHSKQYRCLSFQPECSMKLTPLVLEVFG
T1 sequence (P19793 201-462 partner limits assumed): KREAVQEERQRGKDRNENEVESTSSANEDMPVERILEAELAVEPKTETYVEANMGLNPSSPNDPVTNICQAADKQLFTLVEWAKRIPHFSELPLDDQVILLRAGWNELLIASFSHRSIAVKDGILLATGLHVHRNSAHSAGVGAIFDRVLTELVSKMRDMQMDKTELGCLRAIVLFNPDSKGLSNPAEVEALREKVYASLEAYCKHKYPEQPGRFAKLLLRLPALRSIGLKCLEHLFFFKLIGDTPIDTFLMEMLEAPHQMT
Text: 2. The RXR-VDR heterodimerization (SaOS-2 cells) test is described in the “Assay” section of the Description, infra.
1. The RXR-VDR heterodimerAssay:
This assay provides the VDR activity of a test compound.
(1) Materials and Method for RXR-VDR Heterodimerization Assay:
Luciferase Assay Reagent: • Use Steady-Glo Luciferase Reagent from Promega (Cat # E2550) Consists of: • a. E2533 Assay Substrate, lyopholized product and • b. […] DAY 2: Transfection Step 1: DNA and Media • Add plain DMEM media to tubes for mixing the DNA • Add the Reporter gene pFR-LUC • Add the Gal-4-RXR-DEF and VP16-VDR-LBD Step 2: FuGENE and Media • Prepare plain DMEM media in a ubes for mixing FuGENE • Add FuGENE 6 Transfection Reagent • Incubate Step 3: FuGENE, DNA and Media Complex • Add FuGENE Media complex from step 2 to DNA Media complex from step 1 • Incubate Step 4: FuGENE, DNA and Media Complex to-well plate • Add FuGENE-DNA-Media complex from step 3 to each plate • Incubate. […] Day 4: Luciferase Assay • Read the plates after drug treatment • Remove part of media from all the wells and leave remainder • Add Steady-Glo Luciferase Reagent mixture/wells • Incubate • Count each well using a Luminescence counter, Top Count NXT by Packard
Set a delay between plates to reduce the background.

[3] = Homo sapiens, Keratinocyte, 72 h

| Structure (SMILES) | IC50 ([1]; Homo sapiens, PBMC) | IC50 (KERtr cells; [3]) | Mouse Hypercal [2] | EC50 (rat osteocalcin promoter) | EC50 (rat osteocalcin promoter; Rattus norvegicus) | further results |
| --- | --- | --- | --- | --- | --- | --- |
| CCC(CC)(c1ccc(OS(C)(=O)=O)c(C)c1)c1cc(C)c(CCC(O)C(C)(C)C)s1 (single isomer, unassigned) [Ex. 19A] | 60 nM | 18 nM | – | – | – | – |
| CCC(CC)(c1ccc(CCC(=O)O)c(C)c1)c1cc(C)c(CCC(O)C(C)(C)C)s1 (single isomer, unassigned) [Ex. 30B] | 120 nM | – | – | – | – | – |
| CCc1cc(C(CC)(CC)c2ccc(C(=O)O)s2)ccc1OCC(O)C(C)(C)C (single isomer, unassigned) [Ex. 100, 3′-[4-(2-hydroxy-3,3-dimethylbutoxy)-3-ethylphenyl]-3′-[5-carboxy-thiophen-2-yl]pentane] | – | 215 nM | 3000 µg/kg/day | 5.63 nM | – | – |
| CCC(CC)(c1ccc(OCC(C)(O)C(C)(C)C)c(C)c1)c1ccc(C(=O)NCC(=O)O)s1 (single isomer, unassigned) [Ex. 106, 3′-[4-(2-hydroxy-2,3,3-trimethylbutoxy)-3-methylphenyl]-3′-[5-(carboxymethylamino)carbonyl-thiophen-2-yl]pentane] | – | 13 nM | – | – | 8.05 nM | Mouse Hypercal μg/Kg/d [2]: >=1000 μg/Kg/d |
| CCc1cc(C(CC)(CC)c2ccc(C(=O)O)s2)ccc1OCC(C)(O)C(C)(C)C (single isomer, unassigned) [Ex. 108, 3′-[4-(2-hydroxy-2,3,3-trimethylbutoxy)-3-ethylphenyl]-3′-[5-carboxy-thiophen-2-yl]pentane] | 597 nM | 66 nM | 300 µg/kg/day | – | 5.25 nM | – |
| CCc1cc(C(CC)(CC)c2ccc(C(=O)N[C@@H](C)C(=O)O)s2)ccc1OCC(C)(O)C(C)(C)C (single isomer, unassigned) [Ex. 110, d-3′-[4-(2-hydroxy-2,3,3-trimethylbutoxy)-3-ethylphenyl]-3′-[5-(carboxy-1-ethylamino)carbonyl-thiophen-2-yl]pentane] | 288 nM | 9.5 nM | <300 µg/kg/day | – | 0.225 nM | – |
| CCCc1cc(C(CC)(CC)c2ccc(C(=O)O)s2)ccc1OCC(C)(O)C(C)(C)C (single isomer, unassigned) [Ex. 113, 3′-[4-(2-hydroxy-2,3,3-trimethylbutoxy)-3-n-propylphenyl]-3′-[5-carboxy-thiophen-2-yl]pentane] | – | – | – | 118 nM | – | EC50 (RXR-VDR heterodimer): 542 nM |
| C=C1/C(=C\C=C2/CCC[C@]3(C)[C@@H]([C@H](C)CCCC(C)(C)O)CC[C@@H]23)C[C@@H](O)C[C@@H]1O [AA, 1α,25-dihydroxyvitamin D3, reference compound] | – | – | 0.06 µg/kg/day | 5 nM | – | IC50 [1]: 1.2 nM |
| CCC(CC)(c1ccc(OCC(=O)C(C)(C)C)c(C)c1)c1ccc(OCC(=O)C(C)(C)C)c(C)c1 [DD, reference compound] | – | 1060 nM | 1000 µg/kg/day | – | 31.1 nM | – |
| CCC(CC)(c1ccc(OCC(=O)C(C)(C)C)c(C)c1)c1cc(C)c(CS(C)(=O)=O)s1 [Ex. 9] | 98 nM | 129 nM | – | – | 46.6 nM | – |
| CCC(CC)(c1ccc(OCC(O)C(C)(C)C)c(C)c1)c1cc(C)c(C(=O)N[C@@H](C)C(=O)O)s1 (stereo partly drawn) [Ex. 55, L-2-[(5-{1-Ethyl-1-[4-(2-hydroxy-3,3-dimethyl-butoxy)-3-methyl-phenyl]-propyl}-3-methyl-thiophene-2-carbonyl)-amino]-propionic acid] | – | – | 1000 µg/kg/day | 29.6 nM | – | IC50 (KERtr cells): 0.1 nM |
| CCC(CC)(c1ccc(OCC(O)C(C)(C)C)c(C)c1)c1cc(C)c(C(=O)N[C@@H](C)C(=O)O)s1 (stereo partly drawn) [Ex. 65, L-2-[(5-{1-Ethyl-1-[4-(2-hydroxy-3,3-dimethyl-butoxy)-3-methyl-phenyl]-propyl}-3-methyl-thiophene-2-carbonyl)-amino]-propionic acid] | 41 nM | – | 300 µg/kg/day | 3.4 nM | – | IC50 (KERtr cells): 56 nM |
| CCC(CC)(c1ccc(OCC(O)C(C)(C)C)c(C)c1)c1cc(C)c(C(=O)N[C@H](C)C(=O)O)s1 (stereo partly drawn) [Ex. 67, D-2-[(5-{1-Ethyl-1-[4-(2-hydroxy-3,3-dimethyl-butoxy)-3-methyl-phenyl]-propyl}-3-methyl-thiophene-2-carbonyl)-amino]-propionic acid] | – | 197 nM | 3000 µg/kg/day | 19.4 nM | – | – |
| CCCc1cc(C(CC)(CC)c2ccc(C(=O)O)s2)ccc1OCC(O)C(C)(C)C (centres unmarked) [Ex. 93, 3′-[4-(2-hydroxy-3,3-dimethylbutoxy)-3-n-propylphenyl]-3′-[5-carboxy-thiophen-2-yl]pentane] | – | 178 nM | 3000 µg/kg/day | – | 38.5 nM | – |
| CCC(CC)(c1ccc(OCC(O)C(C)(C)C)c(C)c1)c1cc(C)c(S(=O)(=O)NCC(=O)O)s1 (centres unmarked) [Ex. 138] | 110 nM | 102 nM | – | – | – | – |
| CCC(CC)(c1ccc(OCC(O)C(C)(C)C)c(C)c1)c1cc(C)c(-c2n[nH]c(=O)o2)s1 (centres unmarked) [Ex. 170] | 100 nM | – | – | – | – | – |

— patent US7601850B2, “Phenyl-thiophene type vitamin D receptor modulators” (Eli Lilly and Company, priority 2002, dated 2009)
